From patent US11939295B1, “6-(3-hydroxyphenyl)-2-methoxy-4-(3-methylphenyl)nicotinonitrile as an antimicrobial compound” (KING FAISAL UNIVERSITY, priority 2023, dated 2024)

Columns and labels:
Assay type in all cases: cell-based
Conditions in all cases: after 10, 20, 40 and 60 minutes at all dilutions 1:100, 1:200, 1:400, 1:800
Pseudomonas aeruginosa = experiment: Antimicrobial testing by agar dilution, Pseudomonas aeruginosa
Method: (§1) The antimicrobial properties of the 6-(3-hydroxyphenyl)-2-methoxy-4-(3-methylphenyl)nicotinonitrile (4) were studied by the method of agar dilution. Test solutions of each compound were prepared in concentration of 1% using dimethylformamide as a solvent then they are diluted in physiological solution to obtain the final experimental dilutions 1:100, 1:200, 1:400, 1:800. The effect of these substances were compared with furacillin in a controllable study. The testing microbes used were gram positive bacteria Staphylococcus aureus, gram negative bacteria Escherichia coli, Pseudomonas aeruginosa and Candida albicans fungi were taken. The experiments used for this survey were meat-pentonlu agar (EPA) for cultivation of bacteria and Saburo environment for fungi. Each experiment used 1 ml of test solution on each plate 500 min. Add 2 drops of emulsified with microbes feel. All experimental samples were taken from the agar after 10, 20, 40, 60 minutes in the environment on the basis of Patrk planted. Bacteria were cultivated at a temperature of 37° C. for 1 day and the mushroom was kept in a thermostat for 2 hours at a temperature of 28° C. in the. Then results were checked.

Staphylococcus aureus = experiment: Antimicrobial testing by agar dilution, Staphylococcus aureus
Method: as §1

Escherichia coli = experiment: Antimicrobial testing by agar dilution, Escherichia coli
Method: as §1

Candida albicans = experiment: Antimicrobial testing by agar dilution, Candida albicans
Method: as §1

Measured: inhibition activity

COc1nc(-c2cccc(O)c2)cc(-c2cccc(C)c2)c1C#N [6-(3-hydroxyphenyl)-2-methoxy-4-(3-methylphenyl)nicotinonitrile]
highest inhibition activity: all assays above
